pIC50: −log10 of the molar value.
Target: Human TASK-1 channels (Homo sapiens (Human), UniProt O14649)
Experiment: Determination of the activity on the TASK-1 channel in Xenopus oocytes (two-microelectrode voltage clamp)
Format: cell-based
Conditions: for pIC50: human TASK-1 expressed in Xenopus oocytes, room temperature, read-out: IC50 value for TASK-1 inhibition; for inhibition at 5 µM: compound concentration 5 μM
Procedure, shortened: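 Xenopus oocytes were injected with human TASK-1 cRNA and recorded two days later by two-microelectrode voltage clamp, holding at −90 mV with 500 ms steps to 40 mV. Superfusion used ND96, pH 7.4, at room temperature, with rising compound concentrations; percentage inhibition of control current was fitted to a dose-response curve for IC50.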

Human TASK-1 channels, sequence (O14649 whole entry): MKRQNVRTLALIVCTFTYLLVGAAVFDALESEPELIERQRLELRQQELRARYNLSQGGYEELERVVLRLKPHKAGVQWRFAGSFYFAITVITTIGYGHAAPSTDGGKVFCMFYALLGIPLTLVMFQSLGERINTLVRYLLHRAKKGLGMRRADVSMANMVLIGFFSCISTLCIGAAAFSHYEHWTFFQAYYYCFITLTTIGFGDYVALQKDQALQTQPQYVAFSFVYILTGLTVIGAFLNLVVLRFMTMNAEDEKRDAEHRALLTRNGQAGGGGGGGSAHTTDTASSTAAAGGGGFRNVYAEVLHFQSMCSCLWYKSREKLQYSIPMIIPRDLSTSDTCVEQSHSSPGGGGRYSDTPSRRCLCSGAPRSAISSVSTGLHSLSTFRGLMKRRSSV

| Compound | pIC50 | inhibition at 5 µM [%] |
| --- | --- | --- |
| CC[C@@H](NC(=O)c1cc(C(=O)N[C@H](c2ccc(F)cc2)C2CC2)n2c1COCC2)c1ccccc1 [16ik, 3,4-Dihydro-1H-pyrrolo[2,1-c][1,4]oxazine-6,8-dicarboxylic acid 6-{[(S)-cyclopropyl-(4-fluoro-phenyl)-methyl]-amide} 8-[((R)-1-phenyl-propyl)-amide]] | 6.15 |  |
| CC[C@@H](NC(=O)c1cc(C(=O)N2CCC[C@@H]2C)n2c1COCC2)c1ccc(OC)c(Cl)c1 [16ch, 6-((S)-2-Methyl-pyrrolidine-1-carbonyl)-3,4-dihydro-1H-pyrrolo[2,1-c][1,4]oxazine-8-carboxylic acid [(R)-1-(3-chloro-4-methoxy-phenyl)-propyl]-amide] | 7.14 |  |
| CC[C@@H](NC(=O)c1cc(C(=O)N2CCC[C@@H]2C)n2c1COCC2)c1ccc(F)c(C#N)c1 [16gq, 6-((S)-2-Methyl-pyrrolidine-1-carbonyl)-3,4-dihydro-1H-pyrrolo[2,1-c][1,4]oxazine-8-carboxylic acid [(R)-1-(3-cyano-4-fluoro-phenyl)-propyl]-amide] | 6.31 |  |
| CC[C@@H](NC(=O)c1cc(C(=O)NCC2CC2)n2c1CCCC2)c1ccccc1 [16mf, 5,6,7,8-Tetrahydro-indolizine-1,3-dicarboxylic acid 3-cyclopropylmethyl-amide 1-[((R)-1-phenyl-propyl)-amide]] | 6.59 |  |
| CC[C@@H](NC(=O)c1cc(C(=O)N[C@H](CC)c2cccnc2OC)n2c1COCC2)c1ccccc1 [16ig, 3,4-Dihydro-1H-pyrrolo[2,1-c][1,4]oxazine-6,8-dicarboxylic acid 6-{[(R)-1-(2-methoxy-pyridin-3-yl)-propyl]-amide} 8-[((R)-1-phenyl-propyl)-amide]] | 6.62 |  |
| CC[C@@H](NC(=O)c1cc(C(=O)NC(C)c2cnccn2)n2c1COCC2)c1ccccc1 (single isomer, unassigned) [16ie] | 6.59 |  |
| CC[C@@H](NC(=O)c1cc(C(=O)NCCc2ccccn2)n2c1COCC2)c1ccccc1 [16gm, 3,4-Dihydro-1H-pyrrolo[2,1-c][1,4]oxazine-6,8-dicarboxylic acid 8-[((R)-1-phenyl-propyl)-amide] 6-[(2-pyridin-2-yl-ethyl)-amide]] | 6.31 |  |
| C[C@H]1CCCN1C(=O)c1cc(C(=O)NCc2c(F)cccc2Cl)c2n1CCOC2 [16nu, 6-((S)-2-Methyl-pyrrolidine-1-carbonyl)-3,4-dihydro-1H-pyrrolo[2,1-c][1,4]oxazine-8-carboxylic acid 2-chloro-6-fluoro-benzylamide] | 6.82 |  |
| C[C@H]1CCCN1C(=O)c1cc(C(=O)NCc2c(F)cc(F)cc2F)c2n1CCOC2 [16af, 6-((S)-2-Methyl-pyrrolidine-1-carbonyl)-3,4-dihydro-1H-pyrrolo[2,1-c][1,4]oxazine-8-carboxylic acid 2,4,6-trifluoro-benzylamide] |  | 78 |
| C[C@H](NC(=O)c1cc(C(=O)N[C@H](C)c2ccc(F)cc2)n2c1COCC2)c1ncccn1 (racemic) [16dx, 3,4-Dihydro-1H-pyrrolo[2,1-c][1,4]oxazine-6,8-dicarboxylic acid 6-{[(R)-1-(4-fluoro-phenyl)-ethyl]-amide} 8-[((S)-1-pyrimidin-2-yl-ethyl)-amide]] | 5.92 |  |
| CC[C@@H](NC(=O)c1cc(C(=O)NC(C)c2nnn(C)n2)n2c1COCC2)c1ccccc1 (stereo partly drawn) [16rn, 3,4-Dihydro-1H-pyrrolo[2,1-c][1,4]oxazine-6,8-dicarboxylic acid 6-{[1-(2-methyl-2H-tetrazol-5-yl)-ethyl]-amide} 8-[((R)-1-phenyl-propyl)-amide]] | 6.74 |  |
| CC[C@@H](NC(=O)c1cc(C(=O)N[C@H](CC)c2ccccc2)n2c1COCC2)c1ccccc1 [16i, 3,4-Dihydro-1H-pyrrolo[2,1-c][1,4]oxazine-6,8-dicarboxylic acid bis-[((R)-1-phenyl-propyl)-amide]] | 6.80 |  |
| CC[C@@H](NC(=O)c1cc(C(=O)N[C@H](CC)c2ccccc2)n2c1SCC2)c1ccccc1 [16kv, 2,3-Dihydro-pyrrolo[2,1-b]thiazole-5,7-dicarboxylic acid bis-[((R)-1-phenyl-propyl)-amide]] | 6.49 |  |
| CC[C@@H](NC(=O)c1cc(C(=O)N2CCC[C@@H]2C)n2c1COCC2)c1ccc(F)cc1F [16v, 6-((S)-2-Methyl-pyrrolidine-1-carbonyl)-3,4-dihydro-1H-pyrrolo[2,1-c][1,4]oxazine-8-carboxylic acid [(R)-1-(2,4-difluoro-phenyl)-propyl]-amide] | 6.96 |  |
| CC[C@@H](NC(=O)c1cc(C(=O)NC(C)c2nnn(CC)n2)n2c1COCC2)c1ccccc1 (stereo partly drawn) [16rq, 3,4-Dihydro-1H-pyrrolo[2,1-c][1,4]oxazine-6,8-dicarboxylic acid 6-{[1-(2-ethyl-2H-tetrazol-5-yl)-ethyl]-amide} 8-[((R)-1-phenyl-propyl)-amide]] | 6.12 |  |
| CC[C@@H](NC(=O)c1cc(C(=O)N2CCC[C@@H]2C)n2c1COC(C)(C)C2)c1ccc(C#N)cc1 [16nx, 3,3-Dimethyl-6-((S)-2-methyl-pyrrolidine-1-carbonyl)-3,4-dihydro-1H-pyrrolo[2,1-c][1,4]oxazine-8-carboxylic acid [(R)-1-(4-cyano-phenyl)-propyl]-amide] | 6.43 |  |
| CC[C@@H](NC(=O)c1cc(C(=O)N[C@H](C)c2ccc(F)cc2)c2n1CSC2)c1ccccc1 [16kw, 1H-Pyrrolo[1,2-c]thiazole-5,7-dicarboxylic acid 7-{[(R)-1-(4-fluoro-phenyl)-ethyl]-amide} 5-[((R)-1-phenyl-propyl)-amide]] | 7.02 |  |

Further lines, results first:

| pIC50 | inhibition at 5 µM [%] | Compound |
| --- | --- | --- |
| 6.89 |  | CC[C@H](NC(=O)c1cc(C(=O)N[C@H](CC)c2ccccc2)c2n1CCOC2)c1cnc(OC)cn1 [16hz, 3,4-Dihydro-1H-pyrrolo[2,1-c][1,4]oxazine-6,8-dicarboxylic acid 6-{[(S)-1-(5-methoxy-pyrazin-2-yl)-propyl]-amide} 8-[((R)-1-phenyl-propyl)-amide]] |
| 7.19 |  | CC[C@@H](NC(=O)c1cc(C(=O)N2CCC[C@@H]2C)n2c1COCC2)c1ccc(C(F)(F)F)nc1Cl [16cc, 6-((S)-2-Methyl-pyrrolidine-1-carbonyl)-3,4-dihydro-1H-pyrrolo[2,1-c][1,4]oxazine-8-carboxylic acid [(R)-1-(2-chloro-6-trifluoromethyl-pyridin-3-yl)-propyl]-amide] |
| 5.72 |  | O=C(NC(c1ccc(F)cc1)C(F)(F)F)c1cc(C(=O)N2CCCC2)n2c1COCC2 (stereo not drawn) [16df, 6-(Pyrrolidine-1-carbonyl)-3,4-dihydro-1H-pyrrolo[2,1-c][1,4]oxazine-8-carboxylic acid [2,2,2-trifluoro-1-(4-fluoro-phenyl)-ethyl]-amide] |
| 6.92 |  | CC[C@@H](NC(=O)c1cc(C(=O)N2CCC[C@@H]2c2ccccc2)n2c1CCCC2)c1ccccc1 [16mm, 3-((R)-2-Phenyl-pyrrolidine-1-carbonyl)-5,6,7,8-tetrahydro-indolizine-1-carboxylic acid ((R)-1-phenyl-propyl)-amide] |
| 6.19 |  | CC[C@@H](NC(=O)c1cc(C(=O)NCc2c(C)noc2C)n2c1COCC2)c1ccccc1 [16pq, 3,4-Dihydro-1H-pyrrolo[2,1-c][1,4]oxazine-6,8-dicarboxylic acid 6-[(3,5-dimethyl-isoxazol-4-ylmethyl)-amide] 8-[((R)-1-phenyl-propyl)-amide]] |
| 7.04 |  | C[C@@H](NC(=O)c1cc(C(=O)N2CCC[C@@H]2C)n2c1CCCC2)c1ccc(Cl)cc1 [16ly, 3-((S)-2-Methyl-pyrrolidine-1-carbonyl)-5,6,7,8-tetrahydro-indolizine-1-carboxylic acid [(R)-1-(4-chloro-phenyl)-ethyl]-amide] |
| 6.64 |  | CC[C@@H](NC(=O)c1cc(C(=O)NC(C)COC)n2c1COCC2)c1ccccc1 (stereo partly drawn) [16gg, 3,4-Dihydro-1H-pyrrolo[2,1-c][1,4]oxazine-6,8-dicarboxylic acid 6-[(2-methoxy-1-methyl-ethyl)-amide] 8-[((R)-1-phenyl-propyl)-amide]] |
| 7.30 |  | C[C@@H](NC(=O)c1cc(C(=O)N[C@H](C)c2ccc(F)cc2)n2c1COCC2)c1ccccc1 [16dn, 3,4-Dihydro-1H-pyrrolo[2,1-c][1,4]oxazine-6,8-dicarboxylic acid 6-{[(R)-1-(4-fluoro-phenyl)-ethyl]-amide} 8-[((R)-1-phenyl-ethyl)-amide]] |
| 6.17 |  | CC[C@@H](NC(=O)c1cc(C(=O)N2CCN(c3ccccn3)C[C@@H]2C)n2c1COCC2)c1ccccc1 [16fs, 6-((S)-2-Methyl-4-pyridin-2-yl-piperazine-1-carbonyl)-3,4-dihydro-1H-pyrrolo[2,1-c][1,4]oxazine-8-carboxylic acid ((R)-1-phenyl-propyl)-amide] |
|  | 47 | CC[C@@H](NC(=O)c1cc(C(=O)N2CCC[C@@H]2C)n2c1COCC2)c1ncccn1 [16bd, 6-((S)-2-Methyl-pyrrolidine-1-carbonyl)-3,4-dihydro-1H-pyrrolo[2,1-c][1,4]oxazine-8-carboxylic acid ((R)-1-pyrimidin-2-yl-propyl)-amide] |
| 6.09 |  | CC[C@@H](NC(=O)c1cc(C(=O)N2CCC[C@@H]2C)n2c1COCC2)c1ccc(C(F)(F)F)cn1 [16bl, 6-((S)-2-Methyl-pyrrolidine-1-carbonyl)-3,4-dihydro-1H-pyrrolo[2,1-c][1,4]oxazine-8-carboxylic acid [(R)-1-(5-trifluoromethyl-pyridin-2-yl)-propyl]-amide] |
| 6.34 |  | CC(C)[C@@H](NC(=O)c1cc(C(=O)N2CCC[C@@H]2C)n2c1COCC2)c1ccc(C(F)(F)F)nc1 [16aq, 6-((S)-2-Methyl-pyrrolidine-1-carbonyl)-3,4-dihydro-1H-pyrrolo[2,1-c][1,4]oxazine-8-carboxylic acid [(R)-2-methyl-1-(6-trifluoromethyl-pyridin-3-yl)-propyl]-amide] |
| 6.85 |  | CC[C@@H](NC(=O)c1cc(C(=O)N2CCC[C@@H]2C)n2c1COCC2)c1ccc(C(F)(F)F)nc1C [16cb, 6-((S)-2-Methyl-pyrrolidine-1-carbonyl)-3,4-dihydro-1H-pyrrolo[2,1-c][1,4]oxazine-8-carboxylic acid [(R)-1-(2-methyl-6-trifluoromethyl-pyridin-3-yl)-propyl]-amide] |
